Laboratory results: US10772832B2, “Dry powder formulations for inhalation” (OTITOPIC INC., priority 2015, dated 2020)

Legend:
[1] = Anti-solvent suspension evaluation (filtration, residue weighing); type: physicochemical; conditions: 5% w/w suspension, room temperature
Experimental: After considering a number of factors in the end it was determined that only n-heptane and toluene fulfilled all the requirements, and therefore these were selected for further evaluation. Suspensions of acetylsalicylic acid at 5% w/w were prepared with the various anti-solvents, by charging the required amount of anti-solvent, charging the required amount of acetylsalicylic acid, and then stirring until a homogeneous suspension was obtained. The suspensions were qualitatively evaluated at room temperature and then filtered using a 0.45 μm membrane, which was then placed in an oven and dried at 60° C. until the solvent had completely evaporated. A quantitative analysis was performed on the residue that remained in the membrane by weighing the membrane before and after the test.

[2] = Light microscopy particle size; type: physicochemical
Text: Rhodine 3040 US obtained from Rhodia Inc. was used for all experiments. Particles were dispersed in 0.1% w/w docusate sodium in water and observed under a light microscope to confirm particle size. Particles ranging from 66 to 280 μm were observed confirming data from certificate of analysis, though observed “rounding” of the particulates is indicative of partial dissolution in the aqueous dispersant.
Photomicrographs of the pre- and post-micronized uncoated particles were taken by dispersing them in a solution of 0.1% w/w docusate sodium in purified water USP, and using a digital imaging light microscope (Olympus BX51 with Clemex ST-2000 controller) at 400-times or 1000-times magnification.

- Behavior towards n-heptane [1]: phobic behavior
- Solubility in toluene [1]: partially soluble
- Reduction in the starting particle size by micronization [2]: approximately 70 fold
Compound: CC(=O)Oc1ccccc1C(=O)O [acetylsalicylic acid]
